Measurements published in patent US5650412A, “HIV protease inhibitors useful for the treatment of AIDS” (Merck & Co., Inc., priority 1995, dated 1997).
pIC50: −log10 of the molar value.

Tests used:
[1] = test system: HIV-1; test: Cell spread assay: inhibition of the spread of HIV in MT-4 T-lymphoid cell culture; assay type: cell-based; conditions: Human immunodeficiency virus 1, 72 h; MT-4 T-lymphoid cells, HIV-1 wild-type, 3 days with inhibitor, p24 accumulation; read-out: CIC95 (inhibitor concentration which reduced the spread of infection by at least 95%)
Protocol: Inhibition of the spread of HIV in cell culture was measured according to Nunberg, J. H. et al., J. Virol. 65, 4887 (1991). In this assay, MT-4 T-lymphoid cells were infected with HIV-1 (wild-type, unless otherwise indicated) by using a predetermined inoculum, and cultures were incubated for 24 h. At this time, ≤1% of the cells were positive by indirect immunofluorescence. Cells were then extensively washed and distributed into 96-well culture dishes. Serial twofold dilutions of inhibitor were added to the wells, and cultures were continued for 3 additional days. At 4 days postinfection, 100% of the cells in control cultures were infected. HIV-1 p24 accumulation was directly correlated with virus spread. The cell culture inhibitory concentration was defined as the inhibitor concentration in nanomoles/liter which reduced the spread of infection by at least 95%, or CIC95. The CIC95 for compound A is 25 nM.
INHIBITION OF VIRUS SPREAD
A. Preparation of HIV-infected MT-4 cell Suspension […]
The concentration of HIV p24 antigen is measured by an enzyme immunoassay, described as follows. Aliquots of p24 antigen to be measured are added to microwells coated with a monoclonal antibody specific for HIV core antigen. […]

[2] = target: T1, HIV protease (Human immunodeficiency virus type 1 group M subtype B, UniProt P04585); test: Inhibition of Microbial Expressed HIV Protease (protease expressed in Escherichia coli, peptide substrate, HPLC of products); assay type: biochemical; conditions: 50 mM Na acetate, pH 5.5, 30° C., 1 hour
T1 construct: made in house; host or cells: Escherichia coli
Protocol: Assay for Inhibition of Microbial Expressed HIV Protease
Inhibition studies of the reaction of the protease expressed in Eschericia coli with a peptide substrate [Val-Ser-Gln-Asn-(betanaphyl)Ala-Pro-Ile-Val, 0.5 mg/mL at the time the reaction is initiated] were in 50 mM Na acetate, pH 5.5, at 30° C. for 1 hour. Various concentrations of inhibitor in […] DMSO were added to […] of the peptide solution in water. The reaction is initiated by the addition of […] of 0.33 nM protease (0.11 ng) in a solution of 0.133M Na acetate pH 5.5 and 0.1% bovine serum albumin. The reaction was quenched with […] of 5% phosphoric acid. Products of the reaction were separated by HPLC (VYDAC wide pore 5 cm C-18 reverse phase, acetonitrile gradient, 0.1% phosphoric acid). The extent of inhibition of the reaction was determined from the peak heights of the products.

Compound: COc1cc(CN2CCN(C[C@@H](O)[C@H](Cc3ccccc3)NC(=O)O[C@@H]3CCS(=O)(=O)[C@@H]3C(C)C)[C@H](C(=O)NC(C)(C)C)C2)cc2c1OCO2 [Compound A, N-tert-butyl-1-[2'(R)-hydroxy-4'-phenyl-3'(S)-[3"(R)-[1'",1'"-dioxo-2'"(R)-methylethyl]tetrahydrothienyloxycarbonylamino]butyl]-4-[(3'-methoxy-4',5'-methylenedioxyphenyl)methyl]piperazine-2(S)-carboxamide]
- IC95 [1]: 25 nM
- pIC50 [2]: ~8.92
